Like-named read-outs stand apart in the source and are kept apart here.
How the values were obtained:
[1] = test system: Nematospiroides dibius; conditions: Maus
Text: (§1) Die Durchführung der biologischen Tests erfolgte entsprechend den bekannten Verfahren (Plant et. al. Pesticide Science, 1996, 48, S. 351 ff.).

[2] = test system: Heterakis spumosa; conditions: Maus
Text: as §1

[3] = test system: Trichinella spiralis; conditions: in-vitro
Text: as §1

SMILES: C1CNCCN1 [Piperazin]
- Wirkung ([1]; Dosis 2 x 2000 mg/kg): 2 (Wurmreduktion 75-90 %)
- Wirkung ([1]; Dosis 4 x 1000 mg/kg): 1 (Wurmreduktion 50-75 %)
- Wirkung ([2]; Dosis 4 x 100 mg/kg): 0 (Wurmreduktion <50 %)
- Wirkung ([2]; Dosis 4 x 250 mg/kg): 1 (Wurmreduktion 50-75 %)
- Wirkung ([3]; Konzentration 500 µg/ml): 0
- Wirkung ([3]; Konzentration 1000 µg/ml): 0-1

— patent publication EP1189615B1, “ENDOPARASITICIDAL SYNERGISTIC COMBINATION CONTAINING CYCLIC DEPSIPEPTIDES AND PIPERAZINES” (Bayer HealthCare AG, priority 1999, dated 2000)
